We go through six molecules from article PMC2805716, “Critical Structural and Functional Roles for the N-Terminal Insertion Sequence in Surfactant Protein B Analogs” (PLoS ONE, 2010).

Where a SMILES comes first, the peptide text is derived from it. Bridges are numbered along the chain shown (N, C = ends). Where no end group is shown, it is not given here. Where only a bound is given, the exact number is not on record here.

The target in data set [1] is T1, chip-linked Cys-S-MB (Homo sapiens, UniProt P07988, DEL226-262).
T1 construct: made in house; host or cells: chemical solid-phase peptide synthesis (Fmoc), no expression host
T1 sequence (P07988 with tags, fused parts or gaps DEL226-262): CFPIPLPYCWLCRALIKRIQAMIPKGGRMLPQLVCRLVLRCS
As to the kind of experiment: SPR binding to chip-linked Cys-S-MB. To be noted: HBS-EP buffer pH 7.4 with 0.005% P20, 37°C, 50 µl/min, 1 µg peptide/ml; mean. As to the method:
(§1) The respective binding affinities of S-MB and MB, both to themselves (self-association) and to each other (cross-association), were measured with surface plasmon resonance (SPR) spectroscopy using a Biacore 3000 system (Biacore, Uppsala, Sweden), [59]. S-MB and MB, each with a cysteine added to its N-terminus, were chemically linked to a thiol Biacore chip (BR-1000-14, research grade, containing a carboxymethylated dextran matrix covalently attached to a gold film). Solutions of peptide in HBS-EP buffer (i.e., 10 mM Hepes, pH 7.4, 150 mM NaCl, 3 mM EDTA, 0.005% surfactant P20) were then flowed over the chip-linked peptide at a flow rate of 50 µl/min to determine binding affinity at 37°C. Assessment of peptide binding was determined with sensorgrams, in which the arbitrary response units (RU) were plotted as a function of time. Binding associated with control medium containing no peptide was subtracted from final affinity curves, and mean “on” and “off” rate constants (kon and koff) and the dissociation equilibrium constant (KD = koff/kon) were calculated using BIAevaluation Software Version 4.1 based on curve fitting form measurements at 1 µg peptide/ml buffer concentration. The sensor surface was regenerated using 10 mM HCl between sample injections.

The target in data set [2] is T2, chip-linked Cys-MB (Homo sapiens, UniProt P07988, DEL226-262).
T2 construct: made in house; host or cells: chemical solid-phase peptide synthesis (Fmoc), no expression host
In words: SPR binding to chip-linked Cys-MB. To be noted: HBS-EP buffer pH 7.4 with 0.005% P20, 37°C, 1 µg peptide/ml, mean; for koff / kon: 50 µl/min. As to the method:
as §1

Data set [3] in a line: Captive bubble surfactometry, dynamic surface activity. The format is physicochemical. The conditions noted are these: for minimum surface tension: 1.5 mol% in synthetic lipids 16:10:6:1:2 (weight) DPPC:POPC:POPG:POPE:cholesterol, 20 cycles/min, ten cycles, 37°C, n = 4. As to the method:
The captive bubble surfactometer used here was a fully-computerized version of that described by Schurch and co-workers [79]–[81]. In brief, the sample chamber of the apparatus was cut from high-quality cylindrical glass tubing (10 mm inner diameter). A Teflon® piston with a tight O-ring seal was fitted into the glass tubing from the top end, with a plug of buffered 1% agarose gel inserted between the piston and the surfactant solution that was added through a stainless steel port from the other end of the sample chamber. The chamber and piston were vertically mounted in a steel rack, the height of which was regulated by a precision micrometer gear. In a typical experiment, the chamber was filled with a buffered salt solution (140 mM NaCl, 10 mM HEPES, 2.5 mM CaCl2, pH 6.9) containing 10% sucrose. One µl of surfactant solution containing 35 µg of lipid was added to this subphase, which was stirred by a small magnetic bar at 37°C. The subphase volume in the sample chamber averaged 0.7 ml (0.5–1 ml), resulting in a final average surfactant lipid concentration of 50 µg/ml (35–75 µg/ml). An air bubble approximately 7 mm in diameter (∼200 µl in volume) was then introduced within the sample chamber and subjected to cyclic volume (surface area) changes by systematically varying the height of the steel rack following a 5 min pause to allow adsorption to the air-water interface. The ionic composition of the buffered agarose plug minimized bubble adhesion to the plug during cycling, so that an uninterrupted bubble interface was maintained. […] Bubble images were continuously monitored during compression-decompression using a digital video camera (PULNIX Model TM-200, Pulmix America Inc, Sunnyvale, CA) and a professional video recorder (Panasonic AG-1980P, Secaucus, NJ) coupled to a computer with an Intel Pentium 4 processor. […] Bubble areas and volumes were calculated by an original algorithm relating bubble height and diameter to areas of revolution, and bubble surface tension was determined by the method of Malcolm and Elliot. […]

Data set [4] has as its system ventilated rats with ARDS induced by in vivo lavage. In words: Ventilated lung-lavaged rat model of ARDS. The arrangement: species or system Sprague-Dawley rats. To be noted: n = 8–10; for relative order of pulmonary activity (oxygenation and compliance): 90 min after intratracheal 100 mg/kg surfactant; for arterial oxygenation (PaO2) / dynamic lung compliance: synthetic lipids +1.5 mol% peptide, 90 min; for arterial oxygenation (PaO2): 100% oxygen. The method, then: Animal experiments were performed under established protocols approved by the Animal Care and Use Committee at the Los Angeles Biomedical Research Institute at Harbor-UCLA Medical Center. Anesthesia, surgery, lavage, ventilation, and monitoring methods used have been detailed previously [35]–[37]. Briefly, adult male Sprague-Dawley rats weighing 200–225 g were anesthetized with 35 mg/kg pentobarbital sodium and 80 mg/kg ketamine by intraperitoneal injection, intubated, and ventilated with a rodent ventilator (Harvard Apparatus, South Natick, MA) with 100% oxygen, a tidal volume of 7.5 ml/kg and a rate of 60/min. An arterial line was placed in the abdominal aorta for measurements of arterial blood pressure and blood gases. Rats were paralyzed with 1 mg/kg pancuronium bromide intravenously. Only animals with PaO2 values >400 torr while ventilated with 100% oxygen and with normal blood pressure values were included in the experiments. Airway pressures were measured with a pressure transducer (Gould Inc., Cleveland, OH) and tidal volume with a pneumotachometer (Validyne, Northridge, CA) connected to a multi-channel recorder (Gould Inc., Cleveland, OH). The lungs were lavaged 8–12 times with 8 ml of pre-warmed 0.9% NaCl. After the PaO2 in 100% oxygen had reached stable values of <100 torr, the rats were treated with 100 mg/kg of experimental surfactant by intratracheal instillation. Arterial blood gases, tidal volume and airway pressures were determined at 15 min intervals throughout each experiment. Dynamic lung compliance was calculated by dividing tidal volume/kg body weight by changes in airway pressure (peak inspiratory pressure minus positive end-expiratory pressure) (mL/kg/cmH2O). Ninety minutes after surfactant instillation, rats were killed with 200 mg/kg pentobarbital sodium intravenously. Each treatment group consisted of 8–10 animals.

For data set [5] the following is noted: FTIR, methanol; ref [30]; cited from earlier work. The source says:
Although the “10 nsec” MD simulation of dimer S-MB provides a reasonable framework to account for our SDS-PAGE and SPR results (Figs. 8 and 10), it is worthwhile to consider other structural models by which the N-terminal insertion sequence may promote the self-association of S-MB. One possible alternative is that oligomeric S-MB may be due to the N-terminal sequence (residues 1-7) forming β-sheet. The N-terminal SP-B(1–9) (Fig. 2) was earlier proposed to act as a ‘biochemical Velcro®,’ facilitating in vivo either the aggregation of SP-B or the interactions of SP-B with SP-C [50]. In support ...

The target of data set [6] is T3, Cys-S-MB (Super Mini-B with a cysteine added to its N-terminus, chip-linked) (human).
T3 construct: cysteine added to the N-terminus to link the peptide to the thiol Biacore chip; surfactant protein B (SP-B), human, residues 1-25; numbers count on: the mature protein (79 residues); surfactant protein B (SP-B), human, residues 63-78; Immobilised on the SPR chip; also called chipped S-MB; N-terminal Cys-S-MB
T3 chain: T1 sequence (P07988 with tags, fused parts or gaps DEL226-262)
In words: SPR; Biacore 3000; Cys-MB or Cys-S-MB linked to a thiol chip; MB or S-MB at 1 µg peptide/ml in HBS-EP (10 mM Hepes, pH 7.4, 150 mM NaCl, 3 mM EDTA, 0.005% surfactant P20) flowed over at 50 µl/min, 37°C; constants from curve fitting at the one concentration. To be noted: both partners purified.

The target of data set [7] is T4, Cys-MB (Mini-B with a cysteine added to its N-terminus, chip-linked) (human).
T4 construct: cysteine added to the N-terminus to link the peptide to the thiol Biacore chip; surfactant protein B (SP-B), human, residues 8-25; numbers count on: the mature protein (79 residues); surfactant protein B (SP-B), human, residues 63-78; Immobilised on the SPR chip; also called chipped MB; N-terminal Cys-MB
T4 chain: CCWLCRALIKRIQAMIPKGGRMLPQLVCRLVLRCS
The data set is described as above. The conditions noted are these: both partners purified.

Setting [8] is: intratracheal 100 mg/kg surfactant.

Take `CC[C@H](C)[C@@H]1NC(=O)[C@H](CCCNC(=N)N)NC(=O)[C@H](CCCCN)NC(=O)[C@H]([C@@H](C)CC)NC(=O)[C@H](CC(C)C)NC(=O)[C@H](C)NC(=O)[C@H](CCCNC(=N)N)NC(=O)[C@@H]2CSSC[C@H](NC(=O)[C@H](C(C)C)NC(=O)[C@H](CC(C)C)NC(=O)[C@H](CCC(N)=O)NC(=O)[C@@H]3CCCN3C(=O)[C@H](CC(C)C)NC(=O)[C@H](CCSC)NC(=O)[C@H](CCCNC(=N)N)NC(=O)CNC(=O)CNC(=O)[C@H](CCCCN)NC(=O)[C@@H]3CCCN3C(=O)[C@H]([C@@H](C)CC)NC(=O)[C@H](CCSC)NC(=O)[C@H](C)NC(=O)[C@H](CCC(N)=O)NC1=O)C(=O)N[C@@H](CCCNC(=N)N)C(=O)N[C@@H](CC(C)C)C(=O)N[C@@H](C(C)C)C(=O)N[C@@H](CC(C)C)C(=O)N[C@@H](CCCNC(=N)N)C(=O)N[C@H](C(=O)N[C@@H](CO)C(=O)O)CSSC[C@H](N)C(=O)N[C@@H](Cc1c[nH]c3ccccc13)C(=O)N[C@@H](CC(C)C)C(=O)N2` [MB] (H-CWLCRALIKRIQAMIPKGGRMLPQLVCRLVLRCS-OH; disulfide 1-33, 4-27): the koff in data set [1] is 0.00806 s⁻¹; in data set [2], 0.0168 s⁻¹. Further, the kon in data set [1] is 200000 M⁻¹ s⁻¹; in data set [2], 91900 M⁻¹ s⁻¹. In data set [2] (KD = koff/kon), this molecule displayed a Kd of 183 nM.
With “FPIPLPYCWLCRALIKRIQAMIPKGGRMLPQLVCRLVLRCS (disulfide 8-40, 11-34) [S-MB]”, the koff in data set [1] came to 0.000901 s⁻¹; in data set [2], 0.00736 s⁻¹. Also, the association rate constant (kon) is 44700 M⁻¹ s⁻¹ in data set [1] and 141000 M⁻¹ s⁻¹ in data set [2].
In data set [3], H-FPIPLPYC-NH2 [SP-B(1–8)] yielded a minimum surface tension of 20 mN/m. Besides, the “statistical comparison of minimum surface tension” value in data set [3] (after ten cycles, versus S-MB, MB and pig SP-B surfactants) is given as “significantly higher”. In addition, in data set [4], the “relative order of pulmonary activity (oxygenation and compliance)” value is “S-MB > MB > pig SP-B > SP-B(1–8)> lipids alone”. Further, in data set [4] (setting [8]), the “arterial oxygenation (PaO2)” value is reported as “minimal effects” and the dynamic lung compliance result is listed as “minimal effects”.
With “SP-B(1–9): N-terminal SP-B(1–9) peptide (FPIPLPYCW; Pulmonary surfactant-associated protein B; UniProt P07988 201-209, looked up, fragment)”, in data set [5], the β-sheet content was 26.3% and the “β-sheet content in residues” value is listed as ~2.4 residues.

B1: pig SP-B: native pig SP-B, positive control (protein, UniProt P15782 1-79, looked up)
Pulmonary …: FPIPLPFCWLCRTLIKRIQAVVPKGVLLKAVAQVCHVVPLPVGGICQCLAERYIVICLNMLLDRTLPQLVCGLVLRCSS
modifications: Pulmonary surfactant-associated protein B
notes: native pig SP-B, positive control
B1: the minimum surface tension in data set [3] is reported as < 3 mN/m. For the same molecule, in data set [4], the “relative order of pulmonary activity (oxygenation and compliance)” value is reported as “S-MB > MB > pig SP-B > SP-B(1–8)> lipids alone”. Also, in data set [4] (setting [8]), the “arterial oxygenation (PaO2)” value is reported as “increased quickly”; the dynamic lung compliance result is on record as “increased quickly”; the “oxygenation and compliance versus SP-B1-8 and lipids only surfactants” value is “consistently surpassed the performance of SP-B1-8 and lipids only surfactants (p<0.001)”; the “significance of differences in oxygenation and compliance between S-MB, MB and pig SP-B” value is “statistically significant (p<0.05) starting at 30 min after surfactant instillation”.

B2: Mini-B (peptide)
chain: CWLCRALIKRIQAMIPKGGRMLPQLVCRLVLRCS
notes: surfactant protein B (SP-B), human, residues 8-25 (N-terminal helix region); numbers count on: the mature protein (79 residues); surfactant protein B (SP-B), human, residues 63-78 (C-terminal helix region); Oxidised form with intramolecular disulfides Cys-8 to Cys-40 and Cys-11 to Cys-34 (S-MB numbering); also called MB; source: synthetic peptide (Fmoc solid phase, HPLC-purified, air-oxidised)
As for B2, in data set [6], the affinity, expressed as Kd, was 40.4 nM; the koff came out at 0.00806 s⁻¹; the kon turned out to be 200000 M⁻¹ s⁻¹. In data set [7], this molecule displayed a Kd of 183 nM, a koff of 0.0168 s⁻¹ and an on-rate constant (kon) of 91900 M⁻¹ s⁻¹.
